Several values for one entry are separate records, joined by “and”; a condition that tells them apart may be missing. Identical values can stand only once. Entries after “also recorded” stand apart in the source; their conditions may differ. Like-named read-outs stand apart in the source and are kept apart here.
Key:
mushroom tyrosinase [1] = molecular target: T1, mushroom tyrosinase (Agaricus bisporus, UniProt C7FF04); assay: In vitro mushroom tyrosinase inhibition assay (L-DOPA, dopachrome at 475 nm); format: biochemical
T1 construct: purchased Sigma Aldrich (St. Louis, MO, USA)
Target sequence in this assay (C7FF04 1-392 limits assumed): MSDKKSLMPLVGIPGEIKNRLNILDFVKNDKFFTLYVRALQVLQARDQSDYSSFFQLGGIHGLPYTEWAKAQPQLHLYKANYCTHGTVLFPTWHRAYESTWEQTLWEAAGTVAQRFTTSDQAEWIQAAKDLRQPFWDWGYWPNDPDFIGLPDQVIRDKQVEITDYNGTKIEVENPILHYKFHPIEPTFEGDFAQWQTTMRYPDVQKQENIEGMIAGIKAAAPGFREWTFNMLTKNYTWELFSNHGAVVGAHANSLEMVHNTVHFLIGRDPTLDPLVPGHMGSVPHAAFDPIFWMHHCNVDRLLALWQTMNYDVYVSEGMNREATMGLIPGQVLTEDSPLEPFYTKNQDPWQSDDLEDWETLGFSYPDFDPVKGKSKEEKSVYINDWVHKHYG
Experimental: In vitro mushroom tyrosinase (Sigma Aldrich, St. Louis, MO, USA) inhibition assay was performed, following our already reported method [52]. In detail, 140 µL of phosphate buffer (20 mM, pH 6.8), 20 µL of mushroom tyrosinase (30 U/mL) and 20 µL of the inhibitor solution were placed in the wells of a 96-well microplate. After pre-incubation for 10 min at room temperature, 20 µL of L-DOPA (3,4-dihydroxyphenylalanine, Sigma Aldrich, St. Louis, MO, USA) (0.85 mM) was added and the assay plate was further incubated at 25 °C for 20 min. Afterward the absorbance of dopachrome was measured at 475 nm using a microplate reader (OPTIMax, Tunable, Sunnyvale, CA, USA). All of the compounds were dissolved in DMSO and blank tests were performed with solvent DMSO. The IC50 values were reported after subtracting the value of DMSO. […] Each concentration was analyzed in three independent experiments. The IC50 values were determined by the data analysis and graphing software Origin 8.6, 64-bit.
The tyrosinase %age inhibition was determined by using the following formula:Inhibition (%) = [(B − S)/B] × 100(1)
Here, the absorbance of the blank and inhibitor are represented by B and S respectively.

human tyrosinase = molecular target: T2, human tyrosinase (Homo sapiens, UniProt P14679); assay: Human tyrosinase inhibition assay (enzyme prepared from A375 human melanoma cells); format: biochemical; settings: L-DOPA, 50 µg/mL (b9)
T2 construct: endogenous in cells; host or cells: A375 human melanoma cells (ATCC), induced with L-tyrosine; sonicated pellet, 10,000 x g supernatant
T2 sequence (P14679 19-529): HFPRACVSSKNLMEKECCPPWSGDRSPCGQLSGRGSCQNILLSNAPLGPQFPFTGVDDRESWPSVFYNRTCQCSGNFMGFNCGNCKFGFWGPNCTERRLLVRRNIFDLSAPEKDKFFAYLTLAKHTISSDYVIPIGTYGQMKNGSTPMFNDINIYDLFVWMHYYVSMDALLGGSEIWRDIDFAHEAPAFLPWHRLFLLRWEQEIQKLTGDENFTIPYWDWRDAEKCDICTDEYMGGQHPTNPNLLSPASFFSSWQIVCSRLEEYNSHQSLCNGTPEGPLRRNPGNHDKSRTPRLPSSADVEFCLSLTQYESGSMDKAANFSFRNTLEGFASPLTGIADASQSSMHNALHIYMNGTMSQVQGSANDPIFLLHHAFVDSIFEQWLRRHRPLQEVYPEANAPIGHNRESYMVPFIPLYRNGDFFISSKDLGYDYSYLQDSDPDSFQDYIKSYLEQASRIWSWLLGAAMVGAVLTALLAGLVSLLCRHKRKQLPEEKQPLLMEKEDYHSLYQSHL
Experimental: A375 human melanoma cells were obtained from American Type Culture Collection (ATCC; Rockville, MD, USA). A375 cells were grown in Dulbecco’s modified Eagle’s medium (DMEM; Invitrogen, Burlington, ON, Canada) supplemented with L-glutamine, 10% (v/v) fetal bovine serum (FBS; Invitrogen), 50 µg/mL streptomycin (Sigma Aldrich, St. Louis, MO, USA), 50 units/mL penicillin (Sigma Aldrich) and supplemented with 200 µM of L-tyrosine for tyrosinase induction. Cell cultures were incubated at 37 °C, in a humidified atmosphere of 5% CO2. Cells were scraped out from the tissue culture plate with phosphate-buffer saline (PBS) and were homogenized at 4 °C in PBS. The homogenate was centrifuged at 1000× g for 10 min. The precipitate was sonicated in PBS on ice and the mixture was centrifuged at 10,000× g for 30 min. The supernatant containing tyrosinase was used for the measurement of the inhibitory effects.
The assay reaction mixture (200 µL) contained 3.3 mM L-DOPA in 0.33 M phosphate buffer (pH 7.0) and the enzyme in the presence and absence of inhibitors. Fifteen or twenty units of tyrosinase were used to determine the % inhibition. The reaction mixture was incubated at 37 °C for 10 min and the absorbance was recorded at 475 nm using a microplate reader (OPTI Max, Tunable). One unit of the enzyme was defined as the amount of enzyme which increases the absorbance value by 0.001 at 475 per minute under the same conditions as described above.

mushroom tyrosinase [2] = molecular target: T1, mushroom tyrosinase; assay: Kinetic analysis of the inhibition of mushroom tyrosinase (Lineweaver-Burk plots); format: biochemical; settings: for Inhibition Type: Lineweaver-Burk plots; for Ki: secondary plot of slope
Experimental: Among the synthesized Ph derivatives Ph5, Ph6 and Ph9 were selected to determine their inhibition type and inhibition constants on mushroom tyrosinase activity. The potential of these derivatives to inhibit the free enzyme and enzyme–substrate complex was determined in terms of enzyme inhibitor (EI) and enzyme–substrate-inhibitor (ESI) constants respectively. […] Meanwhile, in the case of compound Ph6, the Lineweaver–Burk plot gave a family of straight lines, all of which intersected at the same point on the x-axis Figure 2A. […] It is worth mentioning here that the enzyme inhibitory kinetics were performed with a more efficient natural substrate L-DOPA (L-3,4-dihydroxyphenylalanine). Ph5 is a 3,5-dihydroxyl-substituted benzoic acid derivative and Ph9 is 2,4-dihydroxyl-substituted cinnamic acid derivative whereas, Ph6 is an unsubstituted cinnamic acid analogue.
A series of experiments were performed to calculate the inhibitory kinetics of compounds Ph5, Ph6 and Ph9 by following the already reported method. […] The concentration of substrate L-DOPA was between 0.125 to 2 mM in all kinetic studies. Pre-incubation time and measurement time were the same as discussed in mushroom tyrosinase inhibition assay protocol. Maximal initial velocity was determined from initial linear portion of absorbance up to five minutes after addition of enzyme at a 30 s interval. The inhibition type on the enzyme was determined by Lineweaver–Burk plots of inverse velocities (1/V) versus the inverse of substrate concentration 1/[S] mM^−1.
Target sequence in this assay (C7FF04 1-392): as the sequence (C7FF04 1-392 limits assumed) above

tyrosinase = molecular target: tyrosinase; set-up: method as in PMID 24191339; settings: cited from earlier work
[3] = substrate L-DOPA, pH 6.8, 25 °C, read-out: Mushroom Tyrosinase IC50 ± SEM
[4] = mushroom tyrosinase, L-DOPA, read-out: Ki (enzyme inhibitor constant)

Q: For `COc1ccc(CCNC(=O)COC(=O)c2cccc(O)c2)cc1` [Ph1, 2-((4-methoxyphenethyl)amino)-2-oxoethyl 3-hydroxybenzoate], which IC50 (mushroom tyrosinase [1]; [3]) is on record?
A: 4070 ± 154 nM

Q: What about the inhibition (human tyrosinase) of the same compound?
A: 75.6 ± 5.65%

Q: What does the source list for `COc1ccc(CCNC(=O)COC(=O)c2ccc(O)cc2)cc1` [Ph2, 2-((4-methoxyphenethyl)amino)-2-oxoethyl 4-hydroxybenzoate]?
A: IC50 (mushroom tyrosinase [1]; [3]): 463 ± 17 nM; inhibition (human tyrosinase): 73 ± 5.35%

Q: For `COc1ccc(CCNC(=O)COC(=O)c2ccc(O)cc2O)cc1` [Ph3, 2-((4-methoxyphenethyl)amino)-2-oxoethyl 2,4-dihydroxybenzoate], which IC50 (mushroom tyrosinase [1]; [3]) is on record?
A: 839 ± 38.1 nM

Q: And the inhibition (human tyrosinase)?
A: 79.7 ± 6.61%

Q: For `COc1ccc(CCNC(=O)COC(=O)c2ccc(O)c(O)c2)cc1` [Ph4, 2-((4-methoxyphenethyl)amino)-2-oxoethyl 3,4-dihydroxybenzoate], which IC50 (mushroom tyrosinase [1]; [3]) is on record?
A: 329 ± 21 nM

Q: What about the inhibition (human tyrosinase) of the same compound?
A: 82.2 ± 7.04%

Q: For `COc1ccc(CCNC(=O)COC(=O)c2cc(O)cc(O)c2)cc1` [Ph5, 2-((4-methoxyphenethyl)amino)-2-oxoethyl 3,5-dihydroxybenzoate], which IC50 (mushroom tyrosinase [1]; [3]) is on record?
A: 231 ± 7.8 nM

Q: And the inhibition (human tyrosinase)?
A: 64.8 ± 3.84%

Q: And the Vmax (mushroom tyrosinase [2]; inhibitor dose 0.2 µM)?
A: 8.266 × 10^−6 ∆A/s

Q: And the Vmax (mushroom tyrosinase [2]; inhibitor dose 0.4 µM)?
A: 5.242 × 10^−6 ∆A/s

Q: And the “Inhibition Type” value (mushroom tyrosinase [2]; mushroom tyrosinase, L-DOPA)?
A: mixed-type inhibition

Q: What about the “Ki′ (enzyme substrate inhibitor constant)” value (mushroom tyrosinase [2]; mushroom tyrosinase, L-DOPA, secondary plot of intercept) of the same compound?
A: 475 nM

Q: What about the Ki (mushroom tyrosinase [2]; [4]) of the same compound?
A: 219 nM

Q: With `COc1ccc(CCNC(=O)COC(=O)C=Cc2ccccc2)cc1` [Ph6, 2-((4-methoxyphenethyl)amino)-2-oxoethyl cinnamate] as the compound, how does the IC50 (mushroom tyrosinase [1]; Mushroom Tyrosinase IC50 ± SEM, substrate L-DOPA, pH 6.8, 25 °C) read?
A: 2.04 ± 0.087 nM

Q: And the IC50 (mushroom tyrosinase [1]; Mushroom tyrosinase IC50, as printed in the abstract)?
A: 2.1 nM

Q: And the “Human Tyrosinase (% Inhibition)” value (human tyrosinase)?
A: 92.24 ± 7.985%

Q: What about the inhibition at 50 µg/mL (human tyrosinase) of the same compound?
A: 92.2%

Q: And the Ki (mushroom tyrosinase [2]; Ki (enzyme inhibitor constant), mushroom tyrosinase, L-DOPA)?
A: 2.3 nM

Q: And the Vmax (mushroom tyrosinase [2]; inhibitor dose 0.001 µM)?
A: 7.060 × 10^−6 ∆A/s

Q: What about the Vmax (mushroom tyrosinase [2]; inhibitor dose 0.002 µM) of the same compound?
A: 6.929 × 10^−6 ∆A/s

Q: And the “Inhibition Type” value (mushroom tyrosinase [2]; mushroom tyrosinase, L-DOPA)?
A: non-competitive inhibitor; also recorded: non-competitive inhibition

Q: What about the melting point of the same compound?
A: 103 to 105 °C

Q: Which results are given for `COc1ccc(CCNC(=O)COC(=O)/C=C/c2ccccc2O)cc1` [Ph7, 2-((4-methoxyphenethyl)amino)-2-oxoethyl (E)-3-(2-hydroxyphenyl)acrylate]?
A: IC50 (mushroom tyrosinase [1]; [3]): 104 ± 3.8 nM; inhibition (human tyrosinase): 85.6 ± 6.04%; melting point: 111 to 113 °C

Q: Which results are given for `COc1ccc(CCNC(=O)COC(=O)/C=C/c2ccc(O)cc2)cc1` [Ph8, 2-((4-methoxyphenethyl)amino)-2-oxoethyl(E)-3-(4-hydroxyphenyl)acrylate]?
A: IC50 (mushroom tyrosinase [1]; [3]): 923 ± 53 nM; inhibition (human tyrosinase): 86.3 ± 6.54%; melting point: 119 to 121 °C

Q: What does the source list for `COc1ccc(CCNC(=O)COC(=O)/C=C/c2ccc(O)cc2O)cc1` [Ph9, 2-((4-methoxyphenethyl)amino)-2-oxoethyl(E)-3-(2,4-dihydroxyphenyl)acrylate]?
A: IC50 (mushroom tyrosinase [1]; read-out: Mushroom tyrosinase IC50): 0.059 nM; IC50 (mushroom tyrosinase [1]; [3]): 0.06 nM and 0.059 nM and 0.0595 nM; Human Tyrosinase (% Inhibition) (human tyrosinase): 94.59 ± 8.071%; inhibition at 50 µg/mL (human tyrosinase): 94.6%; Vmax (mushroom tyrosinase [2]; inhibitor dose 0.00003 µM): 4.666 × 10^−6 ∆A/s; Vmax (mushroom tyrosinase [2]; inhibitor dose 0.00012 µM): 2.666 × 10^−6 ∆A/s; Vmax (mushroom tyrosinase [2]; inhibitor dose 0.00015 µM): 4.285 × 10^−6 ∆A/s; Inhibition Type (mushroom tyrosinase [2]; mushroom tyrosinase, L-DOPA): mixed-type inhibition; Ki (mushroom tyrosinase [2]; [4]): 0.09 nM and 0.093 nM

Q: For `COc1ccc(CCNC(=O)COC(=O)/C=C/c2ccc(Cl)cc2)cc1` [Ph10, 2-((4-methoxyphenethyl)amino)-2-oxoethyl (E)-3-(4-chlorophenyl)acrylate], which IC50 (mushroom tyrosinase [1]; [3]) is on record?
A: 452 ± 17.1 nM

Q: And the inhibition (human tyrosinase)?
A: 79.2 ± 5.95%

Q: With `O=c1oc2c(O)c(O)cc3c(=O)oc4c(O)c(O)cc1c4c23` [ellagic acid] as the compound, how does the “Tyrosinase inhibitory activity IC50” value (tyrosinase; substrate L-DOPA) read?
A: 151.1 µg/mL

Q: For `O=c1c(O)c(-c2ccc(O)c(O)c2)oc2cc(O)c(O)c(O)c12` [quercetagetin], which “Tyrosinase inhibitory activity IC50” value (tyrosinase; substrate L-DOPA) is on record?
A: 128.41 µg/mL

Q: What about the “Tyrosinase inhibitory activity IC50” value (tyrosinase; substrate L-tyrosine) of the same compound?
A: 89.31 µg/mL
